The source of these data is patent publication US9656962B2, “Ring-contracted morphinans and the use thereof” (Purdue Pharma L.P., priority 2013, dated 2017).

Holding throughout (type): biochemical
The target of test [1] is T1, μ-opioid receptor (Homo sapiens (Human), UniProt P35372). The test can be described thus: μ-opioid receptor [35S]GTPγS functional assay, HEK-293 or CHO cells (Table 4). As to conditions: for Emax: relative to DAMGO; for EC50: μ GTP. Here is the method: (§1) μ-Opioid Receptor Functional Assay Procedures: [^35S]GTPγS functional assays were conducted using freshly thawed μ-receptor membranes prepared in-house from a cell line expressing recombinant μ opioid receptor in a HEK-293, CHO or U-2 OS cell background, or purchased from a commercial source (Perkin Elmer, Shelton, Conn.; or DiscovRx, Fremont, Calif.). Assay reactions were prepared by sequentially adding the following reagents to binding buffer (100 mM NaCl, 10 mM MgCl2, 20 mM HEPES, pH 7.4) on ice (final concentrations indicated): membrane protein (0.026 mg/mL), saponin ([…]), GDP ([…]) and [^35S]GTPγS (0.20 nM; Perkin Elmer, Shelton, Conn.). The prepared membrane solution (190 μl/well) was transferred to 96-shallow well polypropylene plates containing 10 μl of 20× concentrated stock solutions of the agonist [D-Ala^2, N-methyl-Phe^4 Gly-ol^5]-enkephalin (DAMGO) prepared in dimethyl sulfoxide (DMSO). Plates were incubated for 30 min at about 25° C. with shaking Reactions were terminated by rapid filtration onto 96-well Unifilter GF/B filter plates (Perkin Elmer, Shelton, Conn.) using a 96-well tissue harvester (Perkin Elmer, Shelton, Conn.) followed by three filtration washes with 200 μl of ice-cold wash buffer (10 mM NaH2PO4, 10 mM Na2HPO4, pH 7.4). Filter plates were subsequently dried at 50° C. for 2-3 hours. BetaScint scintillation cocktail (Perkin Elmer, Shelton, Conn.) was added (50 μl/well) and plates were counted using a Packard Top-Count for 1 min/well. Data were analyzed using the sigmoidal dose-response curve fitting functions in GraphPad PRISM v. 3.0, or an in-house function for non-linear, sigmoidal dose-response curve-fitting. [^35S]GTPγS functional assays can also be conducted using freshly thawed μ-receptor membranes prepared from a cell line expressing recombinant μ opioid receptor in a CHO-K1 cell background.
(§2) μ GTP Emax (%) is the maximal effect elicited by a compound relative to the effect elicited by DAMGO, a standard μ agonist.
In TABLE 4, activity response of certain Compounds of the Invention to the μ- and κ-opioid receptors was determined as described above for functional assays using HEK-293 or CHO cells.
In general terms: GTPγS resists hydrolysis and so accumulates on activated G proteins.

Test [2] deals with T1, μ-opioid receptor. The experiment in a line: μ-opioid receptor [35S]GTPγS functional assay, U-2 OS cells (Table 5). As to conditions: for Emax: relative to DAMGO; for EC50: μ GTP. As for the experimental part:
as §1, §2

For the next test, the target named is κ-opioid receptor (Homo sapiens (Human), UniProt P41145). The test can be described thus: κ-opioid receptor [35S]GTPγS functional assay, U-2 OS cells (Table 5). As to conditions: for Emax: relative to U69,593; for EC50: κ GTP. As for the experimental part:
κ-Opioid Receptor Functional Assay Procedures: Functional [^35S]GTPγS binding assays were conducted as follows. κ opioid receptor membrane solution was prepared by sequentially adding final concentrations of 0.026 μg/μl κ membrane protein (in-house), 10 μg/mL saponin, 3 μM GDP and 0.20 nM [^35S]GTPγS to binding buffer (100 mM NaCl, 10 mM MgCl2, 20 mM HEPES, pH 7.4) on ice. The prepared membrane solution (190 μl/well) was transferred to 96-shallow well polypropylene plates containing 10 μl of 20× concentrated stock solutions of agonist prepared in DMSO. Plates were incubated for 30 min at a temperature of about 25° C. with shaking. Reactions were terminated by rapid filtration onto 96-well Unifilter GF/B filter plates (Perkin Elmer, Shelton, Conn.) using a 96-well tissue harvester (Packard) and followed by three filtration washes with 200 μl ice-cold binding buffer (10 mM NaH2PO4, 10 mM Na2HPO4, pH 7.4). Filter plates were subsequently dried at 50° C. for 2-3 hours. Fifty μl/well scintillation cocktail (Perkin Elmer, Shelton, Conn.) was added and plates were counted in a Packard Top-Count for 1 min/well.
κ GTP Emax (%) is the maximal effect elicited by a compound relative to the effect elicited by U69,593.
The following TABLE 5 provides results on the activity response of certain Compounds of the Invention at the μ- and κ-opioid receptors determined as described above using U-2 OS cells.

The structures appear in SMILES notation.

With `O=C(NCc1cc(F)cc(F)c1)[C@@H]1C[C@]23CCN(CC4CC4)[C@H](Cc4ccc(O)cc42)[C@]3(O)C1` [Compound 49, (2R,3aS,4R,9bS)-12-(cyclopropylmethyl)-N-(3,5-difluorobenzyl)-3a,8-dihydroxy-1,2,3,3a,4,5-hexahydro-4,9b-(epimino-ethano)cyclopenta[a]naphthalene-2-carboxamide], the Emax at μ-opioid receptor [1] turned out to be 10.5 ± 0.29%; at μ-opioid receptor [2] it was 42.3 ± 1.45%; at κ-opioid receptor, 108 ± 4.7%. Further, the EC50 at μ-opioid receptor [1] worked out at 0.00617 ± 0.00198 µM; on μ-opioid receptor [2], 3.73 ± 0.23 nM; at κ-opioid receptor it was 0.82 ± 0.099 nM.

With `CN1CC[C@]23C[C@@H](C(N)=O)C[C@@]2(O)[C@H]1Cc1ccc(O)cc13` [Compound 77, (2R,3aS,4R,9bS)-3a,8-dihydroxy-12-methyl-1,2,3,3a,4,5-hexahydro-4,9b-(epiminoethano)cyclopenta[a]naphthalene-2-carboxamide], the Emax worked out at 19.6 ± 5.65% at μ-opioid receptor [1], 85 ± 2.52% at μ-opioid receptor [2] and 65.3 ± 6.44% on κ-opioid receptor. Further, the EC50 was 0.58 ± 0.131 µM at μ-opioid receptor [1], 389 ± 74 nM at μ-opioid receptor [2] and 1150 ± 221 nM at κ-opioid receptor.

Take `O=C(NCc1ccc(O)cc1)[C@H]1C[C@]23CCN(CC4CC4)[C@H](Cc4ccc(O)cc42)[C@]3(O)C1` [Compound 40, (2S,3aS,4R,9bS)-12-(cyclopropylmethyl)-3a,8-dihydroxy-N-(4-hydroxybenzyl)-1,2,3,3a,4,5-hexahydro-4,9b-(epiminoethano)cyclopenta[a]naphthalene-2-carboxamide]: the results for the Emax on μ-opioid receptor [1], on μ-opioid receptor [2] and at κ-opioid receptor were 1%, 29.3 ± 1.33% and 97.7 ± 1.86%, respectively. The values for the EC50 at μ-opioid receptor [1] (bound given in μM), on μ-opioid receptor [2] and on κ-opioid receptor were above 20 µM, 1.45 ± 0.068 nM and 0.73 ± 0.07 nM, respectively.

With `CN1CC[C@]23C[C@H](C(N)=O)C[C@@]2(O)[C@H]1Cc1ccc(O)cc13` [Compound 78, (2S,3aS,4R,9bS)-3a,8-dihydroxy-12-methyl-1,2,3,3a,4,5-hexahydro-4,9b-(epiminoethano)cyclopenta-[a]naphthalene-2-carboxamide], the Emax at μ-opioid receptor [1] was 27.4 ± 1.03%; on μ-opioid receptor [2], 94.7 ± 2.4%; at κ-opioid receptor it was 89.7 ± 4.84%. Further, the results for the EC50 at μ-opioid receptor [1], on μ-opioid receptor [2] and at κ-opioid receptor were 0.308 ± 0.093 µM, 89.3 ± 14.6 nM and 973 ± 136 nM, respectively.

Consider `O=C(NCc1ccc(Cl)cc1)[C@@H]1C[C@]23CCN(CC4CC4)[C@H](Cc4ccc(O)cc42)[C@]3(O)C1` [Compound 43, (2R,3aS,4R,9bS)-N-(4-chlorobenzyl)-12-(cyclopropylmethyl)-3a,8-dihydroxy-1,2,3,3a,4,5-hexahydro-4,9b-(epimino-ethano)cyclopenta[a]naphthalene-2-carboxamide], for which the Emax on μ-opioid receptor [1] is 11 ± 0.82%; on μ-opioid receptor [2], 41.3 ± 2.03%; at κ-opioid receptor it was 102 ± 5.9%. The EC50 at μ-opioid receptor [1] turned out to be 0.00835 ± 0.0018 µM; on μ-opioid receptor [2], 4.55 ± 0.14 nM; at κ-opioid receptor, 0.67 ± 0.02 nM.

On to `O=C(NCc1ccc(Cl)cc1Cl)[C@H]1C[C@]23CCN(CC4CC4)[C@H](Cc4ccc(O)cc42)[C@]3(O)C1` [Compound 45, (2S,3aS,4R,9bS)-12-(cyclopropylmethyl)-N-(2,4-dichlorobenzyl)-3a,8-dihydroxy-1,2,3,3a,4,5-hexahydro-4,9b-(epimino-ethano)cyclopenta[a]naphthalene-2-carboxamide], for which the Emax at μ-opioid receptor [1] stood at 43.3 ± 4.84%; on μ-opioid receptor [2], 87 ± 0.58%; on κ-opioid receptor it was 100 ± 4.62%. The 50% effective concentration (EC50) on μ-opioid receptor [1] was found to be 0.00038 ± 4.4e-05 µM; at μ-opioid receptor [2], 0.14 ± 0.018 nM; at κ-opioid receptor, 0.018 nM.

For the compound `O=C(N[C@H]1CC23CCN(CC4CC4)[C@H](Cc4ccc(O)cc42)[C@]3(O)C1)c1ccccc1` (stereo in doubt) [Compound 79, N-((2S,3aS,4R,9bS)-12-(cyclopropyl-methyl)-3a,8-dihydroxy-1,2,3,3a,4,5-hexahydro-4,9b-(epiminoethano)cyclo-penta[a]naphthalen-2-yl)benzamide], the Emax on μ-opioid receptor [1] is -1%. The same compound showed an EC50 on μ-opioid receptor [1] (bound given in μM) above 20 µM.

With `O=C(NCCCN1CCOCC1)[C@@H]1C[C@]23CCN(CC4CC4)[C@H](Cc4ccc(O)cc42)[C@]3(O)C1` [Compound 85, (2R,3aS,4R,9bS)-12-(cyclopropyl-methyl)-3a,8-dihydroxy-N-(3-morpholinopropyl)-1,2,3,3a,4,5-hexahydro-4,9b-(epimino-ethano)cyclopenta[a]naphthalene-2-carboxamide], the Emax at μ-opioid receptor [1] was -1%. The EC50 on μ-opioid receptor [1] (bound given in μM) is above 20 µM.

On to `O=C(NCc1cccnc1)[C@H]1C[C@]23CCN(CC4CC4)[C@H](Cc4ccc(O)cc42)[C@]3(O)C1` [Compound 92, (2S,3aS,4R,9bS)-12-(cyclopropylmethyl)-3a,8-dihydroxy-N-(pyridin-3-ylmethyl)-1,2,3,3a,4,5-hexahydro-4,9b-(epimino-ethano)cyclopenta[a]naphthalene-2-carboxamide], for which the Emax on μ-opioid receptor [1] was -1%. Moreover, the half-maximal effective concentration (EC50) on μ-opioid receptor [1] (bound given in μM) was above 20 µM.

As for `O=C(NCc1ccncc1)[C@@H]1C[C@]23CCN(CC4CC4)[C@H](Cc4ccc(O)cc42)[C@]3(O)C1` [Compound 90, (2R,3aS,4R,9bS)-12-(cyclopropylmethyl)-3a,8-dihydroxy-N-(pyridin-4-ylmethyl)-1,2,3,3a,4,5-hexahydro-4,9b-(epimino-ethano)cyclopenta[a]naphthalene-2-carboxamide], at μ-opioid receptor [1], the Emax came to 8.14 ± 1.3%. For the same compound, the EC50 on μ-opioid receptor [1] (bound given in μM) was above 20 µM.

As to `O=C(N[C@@H]1CC23CCN(CC4CC4)[C@H](Cc4ccc(O)cc42)[C@]3(O)C1)c1ccccc1` (stereo in doubt) [Compound 82, N-((2R,3aS,4R,9bS)-12-(cyclopropyl-methyl)-3a,8-dihydroxy-1,2,3,3a,4,5-hexahydro-4,9b-(epiminoethano)cyclo-penta[a]naphthalen-2-yl)benzamide], the Emax at μ-opioid receptor [1] was determined as 1%. For the same compound, the concentration giving a half-maximal response (EC50) on μ-opioid receptor [1] (bound given in μM) is above 20 µM.

In the case of `O=C(NCCCN1CCOCC1)[C@H]1C[C@]23CCN(CC4CC4)[C@H](Cc4ccc(O)cc42)[C@]3(O)C1` [Compound 91, (2S,3aS,4R,9bS)-12-(cyclopropylmethyl)-3a,8-dihydroxy-N-(3-morpholinopropyl)-1,2,3,3a,4,5-hexahydro-4,9b-(epimino-ethano)cyclopenta[a]naphthalene-2-carboxamide], the Emax at μ-opioid receptor [1] is -1%. On μ-opioid receptor [1] (bound given in μM), this compound came in with an EC50 above 20 µM.

For the compound `Oc1ccc2c(c1)C13CCN(CC4CC4)[C@H](C2)[C@]1(O)C[C@H](NCc1ccccc1)C3` (stereo in doubt) [Compound 80, (2R,3aS,4R,9bS)-2-(benzylamino)-12-(cyclopropylmethyl)-2,3,4,5-tetrahydro-4,9b-(epiminoethano)-cyclopenta-[a]naphthalene-3a,8(1H)-diol], the Emax at μ-opioid receptor [1] stood at 1%. Also, the EC50 at μ-opioid receptor [1] (bound given in μM) was above 20 µM.

In the case of `O=C([C@@H]1C[C@]23CCN(CC4CC4)[C@H](Cc4ccc(O)cc42)[C@]3(O)C1)N1CCC(N2CCCC2)CC1` [Compound 88, ((2R,3aS,4R,9bS)-12-(cyclopropylmethyl)-3a,8-dihydroxy-1,2,3,3a,4,5-hexahydro-4,9b-(epiminoethano)cyclopenta-[a]naphthalen-2-yl)(4-(pyrrolidin-1-yl)piperidin-1-yl)methanone], on μ-opioid receptor [1], the Emax amounted to 0%. Moreover, the EC50 at μ-opioid receptor [1] (bound given in μM) is above 20 µM.

As for `O=C(Nc1ccccc1)N[C@@H]1CC23CCN(CC4CC4)[C@H](Cc4ccc(O)cc42)[C@]3(O)C1` (stereo in doubt) [Compound 83, 1-((2R,3aS,4R,9bS)-12-(cyclopropyl-methyl)-3a,8-dihydroxy-1,2,3,3a,4,5-hexahydro-4,9b-(epiminoethano)cyclo-penta[a]naphthalen-2-yl)-3-phenylurea], on μ-opioid receptor [1], the Emax was determined as 0%. The EC50 on μ-opioid receptor [1] (bound given in μM) was above 20 µM.

By Emax is commonly meant the maximal effect, on the per cent scale that the assay sets. Broadly, the EC50 is the midpoint of the concentration-response curve. The low end stands for higher potency in that assay, the high end for lower potency in that assay.
